Measurements from ChEMBL document CHEMBL3046521, “Synthesis and antitumor activity of (4-hydroxyphenyl)[5-substituted alkyl/aryl)-2-thioxo-1,3,4-thiadiazol-3-yl]methanone and [(3,4-disubstituted)-1,3-thiazol-2ylidene]-4-hydroxybenzohydrazide” (2011).

What was measured:
Assay type in all cases: functional
MCF7 = assay: Cytotoxicity against Homo sapiens (human) MCF7 cells after 48 hr by sulforhodamine B assay; settings: MCF7, 48 h
SK-MEL-28 = assay: Cytotoxicity against Homo sapiens (human) SK-MEL-28 cells after 48 hr by sulforhodamine B assay; settings: SK-MEL-28, 48 h
KM12 = assay: Cytotoxicity against Homo sapiens (human) KM12 cells after 48 hr by sulforhodamine B assay; settings: KM12, 48 h
PC-3 = assay: Cytotoxicity against Homo sapiens (human) PC3 cells after 48 hr by sulforhodamine B assay; settings: PC-3, 48 h
LOX IMVI = assay: Cytotoxicity against Homo sapiens (human) LOXIMVI cells after 48 hr by sulforhodamine B assay
SNB-19 = assay: Cytotoxicity against Homo sapiens (human) SNB19 cells after 48 hr by sulforhodamine B assay; settings: SNB-19, 48 h
SR = assay: Cytotoxicity against Homo sapiens (human) SR cells after 48 hr by sulforhodamine B assay
HCT-15 = assay: Cytotoxicity against Homo sapiens (human) HCT15 cells after 48 hr by sulforhodamine B assay; settings: HCT-15, 48 h
SF-295 = assay: Cytotoxicity against Homo sapiens (human) SF295 cells after 48 hr by sulforhodamine B assay; settings: SF-295, 48 h
OVCAR-8 = assay: Cytotoxicity against Homo sapiens (human) OVCAR8 cells after 48 hr by sulforhodamine B assay; settings: OVCAR-8, 48 h
HT-29 = assay: Cytotoxicity against Homo sapiens (human) HT-29 cells after 48 hr by sulforhodamine B assay; settings: HT-29, 48 h
MOLT-4 = assay: Cytotoxicity against Homo sapiens (human) MOLT4 cells after 48 hr by sulforhodamine B assay; settings: MOLT-4, 48 h
A549 = assay: Cytotoxicity against Homo sapiens (human) A549 cells after 48 hr by sulforhodamine B assay; settings: A549, 48 h
HCT-116 = assay: Cytotoxicity against Homo sapiens (human) HCT116 cells after 48 hr by sulforhodamine B assay; settings: HCT-116, 48 h
BT-549 = assay: Cytotoxicity against Homo sapiens (human) BT549 cells after 48 hr by sulforhodamine B assay; settings: BT-549, 48 h
SF-539 = assay: Cytotoxicity against Homo sapiens (human) SF539 cells after 48 hr by sulforhodamine B assay; settings: SF-539, 48 h
TK-10 = assay: Cytotoxicity against Homo sapiens (human) TK10 cells after 48 hr by sulforhodamine B assay; settings: TK-10, 48 h
786-0 = assay: Cytotoxicity against Homo sapiens (human) 786-0 cells after 48 hr by sulforhodamine B assay; settings: 786-0, 48 h
NCI-H322M = assay: Cytotoxicity against Homo sapiens (human) NCI-H322M cells after 48 hr by sulforhodamine B assay
CAKI-1 = assay: Cytotoxicity against Homo sapiens (human) Caki1 cells after 48 hr by sulforhodamine B assay; settings: CAKI-1, 48 h
OVCAR-4 = assay: Cytotoxicity against Homo sapiens (human) OVCAR4 cells after 48 hr by sulforhodamine B assay; settings: OVCAR-4, 48 h
M14 = assay: Cytotoxicity against Homo sapiens (human) M14 cells after 48 hr by sulforhodamine B assay; settings: M14, 48 h
MDA-MB-435 = assay: Cytotoxicity against Homo sapiens (human) MDA-MB-435 cells after 48 hr by sulforhodamine B assay; settings: MDA-MB-435, 48 h
[1] = Cytotoxicity against Homo sapiens (human) NCI-ADR-RES cells after 48 hr by sulforhodamine B assay
SW-620 = assay: Cytotoxicity against Homo sapiens (human) SW620 cells after 48 hr by sulforhodamine B assay; settings: SW-620, 48 h
[2] = Cytotoxicity against Homo sapiens (human) […] cells after 48 hr by sulforhodamine B assay
UACC-257 = assay: Cytotoxicity against Homo sapiens (human) UACC257 cells after 48 hr by sulforhodamine B assay; settings: UACC-257, 48 h
SF-268 = assay: Cytotoxicity against Homo sapiens (human) SF268 cells after 48 hr by sulforhodamine B assay; settings: SF-268, 48 h
HOP-92 = assay: Cytotoxicity against Homo sapiens (human) HOP92 cells after 48 hr by sulforhodamine B assay; settings: HOP-92, 48 h
UACC-62 = assay: Cytotoxicity against Homo sapiens (human) UACC62 cells after 48 hr by sulforhodamine B assay; settings: UACC-62, 48 h
EKVX = assay: Cytotoxicity against Homo sapiens (human) EKVX cells after 48 hr by sulforhodamine B assay

Cc1ccc(-c2cs/c(=N\NC(=O)c3ccc(O)cc3)n2-c2c(C)cccc2C)cc1
GI50 (MCF7): 23.4 µM | LC50 (MCF7): > 100 µM | TGI (MCF7; read-out: pTGI (converted)): 95.5 µM | GI50 (SK-MEL-28): 30.9 µM | LC50 (concentration killing 50% of cells) (SK-MEL-28): > 100 µM | TGI (SK-MEL-28; read-out: pTGI (converted)): 83.2 µM | GI50 (KM12): 18.2 µM | LC50 (KM12): > 100 µM | TGI (KM12; read-out: pTGI (converted)): 89.1 µM | GI50 (PC-3): 11 µM | LC50 (PC-3): > 100 µM | TGI (PC-3; read-out: pTGI (converted)): 91.2 µM | GI50 (LOX IMVI): 21.9 µM | LC50 (LOX IMVI): > 100 µM | TGI (LOX IMVI; read-out: pTGI (converted)): > 100 µM | GI50 (SNB-19): 20.9 µM | LC50 (SNB-19): > 100 µM | TGI (SNB-19; read-out: pTGI (converted)): > 100 µM | GI50 (SR): 16.2 µM | LC50 (SR): > 100 µM | TGI (SR; read-out: pTGI): > 100 µM | GI50 (HCT-15): 17 µM | LC50 (concentration killing 50% of cells) (HCT-15): > 100 µM | TGI (HCT-15; read-out: pTGI (converted)): > 100 µM | GI50 (SF-295): 20.9 µM | LC50 (SF-295): > 100 µM | TGI (SF-295; read-out: pTGI (converted)): 79.4 µM | GI50 (OVCAR-8): 31.6 µM | LC50 (OVCAR-8): > 100 µM | TGI (OVCAR-8; read-out: pTGI (converted)): > 100 µM | GI50 (HT-29): 17.4 µM | LC50 (HT-29): 83.2 µM | TGI (HT-29; read-out: pTGI (converted)): 38 µM | GI50 (MOLT-4): 13.5 µM | LC50 (MOLT-4): > 100 µM | TGI (MOLT-4; read-out: pTGI (converted)): 57.5 µM | GI50 (A549): 23.4 µM | LC50 (A549): > 100 µM | TGI (A549; read-out: pTGI (converted)): > 100 µM | GI50 (HCT-116): 22.9 µM | LC50 (HCT-116): > 100 µM | TGI (HCT-116; read-out: pTGI (converted)): > 100 µM | GI50 (BT-549): 21.9 µM | LC50 (BT-549): > 100 µM | TGI (BT-549; read-out: pTGI (converted)): > 100 µM | GI50 (SF-539): 21.9 µM | LC50 (SF-539): > 100 µM | TGI (SF-539; read-out: pTGI (converted)): > 100 µM | GI50 (TK-10): 19.1 µM | LC50 (TK-10): > 100 µM | TGI (TK-10; read-out: pTGI (converted)): 83.2 µM | GI50 (786-0): 22.4 µM | LC50 (786-0): > 100 µM | TGI (786-0; read-out: pTGI (converted)): > 100 µM | GI50 (NCI-H322M): 35.5 µM | LC50 (NCI-H322M): > 100 µM | TGI (NCI-H322M; read-out: pTGI (converted)): > 100 µM | GI50 (CAKI-1): 10.5 µM | LC50 (CAKI-1): > 100 µM | TGI (CAKI-1; read-out: pTGI (converted)): > 100 µM | GI50 (OVCAR-4): 18.6 µM | LC50 (OVCAR-4): > 100 µM | TGI (OVCAR-4; read-out: pTGI (converted)): > 100 µM | GI50 (M14): 21.4 µM | LC50 (M14): > 100 µM | TGI (M14; read-out: pTGI (converted)): 72.4 µM | GI50 (MDA-MB-435): 16.6 µM | LC50 (MDA-MB-435): > 100 µM | TGI (MDA-MB-435; read-out: pTGI (converted)): 85.1 µM | GI50 [1]: 21.4 µM | LC50 [1]: > 100 µM | TGI ([1]; read-out: pTGI (converted)): 69.2 µM | GI50 (SW-620): 28.8 µM | LC50 (SW-620): > 100 µM | TGI (SW-620; read-out: pTGI (converted)): > 100 µM | GI50 [2]: 20 µM | LC50 [2]: > 100 µM | TGI ([2]; read-out: pTGI (converted)): > 100 µM | GI50 (UACC-257): 42.7 µM | LC50 (UACC-257): > 100 µM | TGI (UACC-257; read-out: pTGI (converted)): > 100 µM | GI50 (SF-268): 23.4 µM | LC50 (SF-268): > 100 µM | TGI (SF-268; read-out: pTGI (converted)): > 100 µM | GI50 (HOP-92): 1.32 µM | LC50 (HOP-92): > 100 µM | TGI (HOP-92; read-out: pTGI (converted)): 26.3 µM | GI50 (UACC-62): 16.6 µM | LC50 (UACC-62): > 100 µM | TGI (UACC-62; read-out: pTGI (converted)): 95.5 µM | GI50 (EKVX): 25.1 µM | LC50 (EKVX): > 100 µM | TGI (EKVX; read-out: pTGI (converted)): > 100 µM
